# Experiments:
# [1] = test system: chronically inflammable intestinal disease; experiment: mouse model for Crohn's disease, oral compatible solutes; type: in vivo; settings: oral ingestion
# Text: Moreover, immunological investigations have shown that the TH-2 TH-1 approach typically adopted for the chronically inflammable intestinal disease may to some extent be circumvented by “compatible solutes”. However, the positive effect of “compatible solutes” is not only limited to an alleviation of the symptoms of chronically inflammable intestinal diseases but in addition is characterized by a pronounced preventive potential. […] It is to be assumed that such a preventive effect but also the therapeutic effect is primarily attributable to the anti-inflammatory properties of “compatible solutes” which on the one hand are aimed at the intestinal epithelial cell but also at the helper T lymphocytes deemed to be the cause of the pathogenesis.
# amyloid plaques = experiment: amyloid plaque formation in mice after oral application; type: in vivo
# Text: Unexpectedly, it has now been ascertained from investigations with mice is involving the oral application of compatible solutes ectoine, hydroxyectoine and firoin A that this enabled the formation of amyloid plaques to be reduced. Likewise, through the administration of compatible solutes the occurrence of neuropathologic effects could be reduced. […] It is to be assumed that such a preventive effect but nevertheless the therapeutic effect as well is primarily attributable to the amyloid-inhibiting properties of “compatible solutes”.
# amyloid fibrils = settings: in vitro; Arora et al. (2004); cited from earlier work
smiles,measurement,setting,value
"CC1=NCCC(C(=O)O)N1 (centres unmarked) [ectoine, 2-methyl-4-carboxy-3,4,5,6-tetrahydropyrimidine]",course of chronically inflammable intestinal diseases,[1],favorably influenced
same,formation of amyloid plaques,amyloid plaques,reduced
same,"formation of protein deposits, so-called amyloid fibrils",amyloid fibrils,inhibit
"NC(=O)[C@H](CO)O[C@@H]1O[C@H](CO)[C@@H](O)[C@H](O)[C@@H]1O [firoin A, mannosylglyceramide]",formation of amyloid plaques,amyloid plaques,reduced
"CC1=NCC(O)C(C(=O)O)N1 (centres unmarked) [hydroxyectoine, 2-methyl-4-carboxy-5-hydroxy-3,4,5,6-tetrahydropyrimidine]",formation of amyloid plaques,amyloid plaques,reduced
